The test system of test [1] is MDA-MB-231. Description: drug sensitivity score (DSS); higher = more sensitive; extreme values may be limits of the assay. The settings on record: incubation time: 72 h. The protocol:
(§1)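 MDA-MB-231 breast cancer cells were transfected with siBRCA1 or non-targeting siControl, then seeded 24 h later at 4000 cells/well in 384-well plates holding 198 drugs at 5 concentrations. Viability was read by CellTiter-Blue after 72 h at 37 °C. Dose-response curves were fitted in Dotmatics to give IC50 and a drug sensitivity score (DSS: area under the curve relative to the area between the 10% threshold and 100% inhibition, normalised by the log of the top response). The dose range is not stated. IC50 values of 8333.3 or 4166.7 nM mark no response (top dose), and 0.8333 nM is the lower limit.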

Test [2] relates to MDA-MB-231. The settings on record: incubation time: 72 h. The protocol: as §1
Setting [3] is: siRNA: siControl (non-targeting).

On to `C=CCn1c(=O)c2cnc(Nc3ccc(N4CCN(C)CC4)cc3)nc2n1-c1cccc(C(C)(C)O)n1` [MK1775], for which the figures for the drug sensitivity score in test [1] (siRNA: siBRCA1) and in test [1] (setting [3]) were 13.2 and 14.3, respectively. Also, the “IC50 of cell viability” value worked out at 348 nM in test [2] (siRNA: siBRCA1) and 230 nM in test [2] (setting [3]).

In the case of `CCNC(=O)CCC/C=C\C[C@@H]1[C@@H](/C=C/[C@@H](O)CCc2ccccc2)[C@H](O)C[C@@H]1O` [Bimatoprost], the drug sensitivity score in test [1] (siRNA: siBRCA1) and in test [1] (setting [3]) was 0 each time. The “IC50 of cell viability” value in test [2] (siRNA: siBRCA1) and in test [2] (setting [3]) was over 4170 nM each time.

For `Nc1nc2[nH]cnc2c(=S)[nH]1` [Thioguanine], the drug sensitivity score in test [1] (siRNA: siBRCA1) is 3.71; in test [1] (setting [3]), 0. For the same molecule, the “IC50 of cell viability” value was 1850 nM in test [2] (siRNA: siBRCA1) and over 4170 nM in test [2] (setting [3]).

On to `N#Cc1ccc(C(c2ccc(C#N)cc2)n2cncn2)cc1` [Letrozole], for which the drug sensitivity score in test [1] (siRNA: siBRCA1) and in test [1] (setting [3]) was 0 in each case. Also, the “IC50 of cell viability” value in test [2] (siRNA: siBRCA1) and in test [2] (setting [3]) was over 4170 nM throughout.

`CO[C@@H]1[C@H](N(C)C(=O)c2ccccc2)C[C@H]2O[C@]1(C)n1c3ccccc3c3c4c(c5c6ccccc6n2c5c31)C(=O)NC4` [PKC412 (Midostaurin)]: the drug sensitivity score in test [1] (siRNA: siBRCA1) came to 11; in test [1] (setting [3]), 14.7. The “IC50 of cell viability” value in test [2] (siRNA: siBRCA1) turned out to be 517 nM; in test [2] (setting [3]), 206 nM.

Regarding `CNNCc1ccc(C(=O)NC(C)C)cc1` [Procarbazine], the drug sensitivity score in test [1] (siRNA: siBRCA1) and in test [1] (setting [3]) was 0 throughout. The “IC50 of cell viability” value in test [2] (siRNA: siBRCA1) and in test [2] (setting [3]) was over 4170 nM each time.

For the molecule `Oc1ncc(N(CCCl)CCCl)c(O)n1` [Uracil mustard], the drug sensitivity score in test [1] (siRNA: siBRCA1) and in test [1] (setting [3]) was 0 each time. Further, the “IC50 of cell viability” value in test [2] (siRNA: siBRCA1) and in test [2] (setting [3]) was over 4170 nM in each case.

Regarding `CC(=O)Nc1ccc(C(=O)Nc2ccccc2N)cc1` [CI-994], the drug sensitivity score amounted to 0 in test [1] (siRNA: siBRCA1) and 2.63 in test [1] (setting [3]). In addition, the “IC50 of cell viability” value in test [2] (siRNA: siBRCA1) is over 4170 nM; in test [2] (setting [3]), 865 nM.

`CC(C)C[C@H](NC(=O)[C@H](Cc1ccccc1)NC(=O)c1cnccn1)B(O)O` [Bortezomib]: the drug sensitivity score was determined as 37.9 in test [1] (siRNA: siBRCA1) and 32.2 in test [1] (setting [3]). The “IC50 of cell viability” value came to 6.91 nM in test [2] (siRNA: siBRCA1) and 18.6 nM in test [2] (setting [3]).

Regarding `NCCCNCCSP(=O)(O)O` [Amifostine], the drug sensitivity score in test [1] (siRNA: siBRCA1) and in test [1] (setting [3]) was 0 each time. Besides, the “IC50 of cell viability” value in test [2] (siRNA: siBRCA1) and in test [2] (setting [3]) was over 4170 nM each time.

Consider `COc1cc2c(Oc3ccc4[nH]c(C)cc4c3F)ncnc2cc1OCCCN1CCCC1` [Cediranib], for which the drug sensitivity score in test [1] (siRNA: siBRCA1) amounted to 0.0221; in test [1] (setting [3]) it was 0. The “IC50 of cell viability” value in test [2] (siRNA: siBRCA1) and in test [2] (setting [3]) was over 4170 nM in each case.

Consider `CC[C@@]1(O)C(=O)OCc2c1cc1n(c2=O)Cc2cc3c(CN(C)C)c(O)ccc3nc2-1` [Topotecan], for which the drug sensitivity score amounted to 10.4 in test [1] (siRNA: siBRCA1) and 10.6 in test [1] (setting [3]). The figures for the “IC50 of cell viability” value in test [2] (siRNA: siBRCA1) and in test [2] (setting [3]) were 661 nM and 766 nM, respectively.

Turning to `CC(C)C[C@H](NC(=O)[C@@H](COC(C)(C)C)NC(=O)[C@H](Cc1ccc(O)cc1)NC(=O)[C@H](CO)NC(=O)[C@H](Cc1c[nH]c2ccccc12)NC(=O)[C@H](Cc1cnc[nH]1)NC(=O)[C@@H]1CCC(=O)N1)C(=O)N[C@@H](CCCNC(=N)N)C(=O)N1CCC[C@H]1C(=O)NNC(N)=O` [Goserelin], the drug sensitivity score in test [1] (siRNA: siBRCA1) and in test [1] (setting [3]) was 0 throughout. In addition, the “IC50 of cell viability” value in test [2] (siRNA: siBRCA1) and in test [2] (setting [3]) was over 4170 nM in each case.

For `CC(C)(C#N)c1cc(Cn2cncn2)cc(C(C)(C)C#N)c1` [Anastrozole], the drug sensitivity score in test [1] (siRNA: siBRCA1) and in test [1] (setting [3]) was 0 throughout. The “IC50 of cell viability” value in test [2] (siRNA: siBRCA1) and in test [2] (setting [3]) was over 4170 nM in each case.

In the case of `Nc1ccn([C@@H]2O[C@H](CO)[C@@H](O)C2(F)F)c(=O)n1` [Gemcitabine], the values for the drug sensitivity score in test [1] (siRNA: siBRCA1) and in test [1] (setting [3]) were 7.87 and 12.8, respectively. Further, the “IC50 of cell viability” value in test [2] (siRNA: siBRCA1) was determined as 2490 nM; in test [2] (setting [3]) it was 78.7 nM.

In the case of `CC(C)(C)c1cnc(CSc2cnc(NC(=O)C3CCNCC3)s2)o1` [SNS-032], the figures for the drug sensitivity score in test [1] (siRNA: siBRCA1) and in test [1] (setting [3]) were 23.9 and 27.6, respectively. Besides, the “IC50 of cell viability” value in test [2] (siRNA: siBRCA1) came out at 53.1 nM; in test [2] (setting [3]), 30.1 nM.

`CC1(C)CCC(c2ccc(Cl)cc2)=C(CN2CCN(c3ccc(C(=O)NS(=O)(=O)c4ccc(N[C@H](CCN5CCOCC5)CSc5ccccc5)c(S(=O)(=O)C(F)(F)F)c4)cc3)CC2)C1` [Navitoclax]: the results for the drug sensitivity score in test [1] (siRNA: siBRCA1) and in test [1] (setting [3]) were 11 and 10.3, respectively. Moreover, the “IC50 of cell viability” value was found to be 835 nM in test [2] (siRNA: siBRCA1) and 821 nM in test [2] (setting [3]).

In the case of `O=C(Nc1ccncc1)C(=O)c1cn(Cc2ccc(Cl)cc2)c2ccccc12` [Indibulin], the drug sensitivity score was determined as 7.58 in test [1] (siRNA: siBRCA1) and 7.93 in test [1] (setting [3]). In addition, the “IC50 of cell viability” value in test [2] (siRNA: siBRCA1) was found to be 753 nM; in test [2] (setting [3]), 632 nM.

Take `COC1=CC(c2cc3ccccc3[nH]2)=N/C1=C\c1[nH]c(C)cc1C` [Obatoclax]: the drug sensitivity score in test [1] (siRNA: siBRCA1) and in test [1] (setting [3]) was 15 throughout. Also, the “IC50 of cell viability” value in test [2] (siRNA: siBRCA1) was 399 nM; in test [2] (setting [3]), 355 nM.

`O=C(O)CCCc1ccc(N(CCCl)CCCl)cc1` [Chlorambucil]: the drug sensitivity score in test [1] (siRNA: siBRCA1) was 0.465; in test [1] (setting [3]) it was 0. The “IC50 of cell viability” value in test [2] (siRNA: siBRCA1) and in test [2] (setting [3]) was over 4170 nM in each case.

For `O=C(c1cc(Cc2n[nH]c(=O)c3ccccc23)ccc1F)N1CCN(C(=O)C2CC2)CC1` [Olaparib], the drug sensitivity score in test [1] (siRNA: siBRCA1) and in test [1] (setting [3]) was 0 each time. Further, the “IC50 of cell viability” value in test [2] (siRNA: siBRCA1) and in test [2] (setting [3]) was over 4170 nM throughout.

For the molecule `O=C(O)C1(C(=O)O)CCC1.[NH2-].[NH2-].[Pt+2]` [Carboplatin], the drug sensitivity score in test [1] (siRNA: siBRCA1) and in test [1] (setting [3]) was 0 each time. In addition, the “IC50 of cell viability” value in test [2] (siRNA: siBRCA1) and in test [2] (setting [3]) was over 4170 nM each time.

As to `CC(C)Cn1cnc2c(N)nc3ccccc3c21` [Imiquimod], the drug sensitivity score in test [1] (siRNA: siBRCA1) and in test [1] (setting [3]) was 0 in each case. Further, the “IC50 of cell viability” value in test [2] (siRNA: siBRCA1) and in test [2] (setting [3]) was over 4170 nM each time.

As for `C#Cc1cccc(Nc2ncnc3cc(OCCOC)c(OCCOC)cc23)c1` [Erlotinib], the drug sensitivity score in test [1] (siRNA: siBRCA1) and in test [1] (setting [3]) was 0 throughout. Also, the “IC50 of cell viability” value in test [2] (siRNA: siBRCA1) and in test [2] (setting [3]) was over 4170 nM each time.

For the molecule `CN1CCC(COc2cnc(-c3cccc(Cn4nc(-c5cccc(C#N)c5)ccc4=O)c3)nc2)CC1`, the drug sensitivity score in test [1] (siRNA: siBRCA1) stood at 3.92; in test [1] (setting [3]), 3.58. For the same molecule, the “IC50 of cell viability” value in test [2] (siRNA: siBRCA1) is 3770 nM; in test [2] (setting [3]), 4020 nM.

As to `COc1cccc2c1C(=O)c1c(O)c3c(c(O)c1C2=O)C[C@@](O)(C(C)=O)C[C@@H]3O[C@H]1C[C@H](N)[C@H](O)[C@H](C)O1` [Daunorubicin], the figures for the drug sensitivity score in test [1] (siRNA: siBRCA1) and in test [1] (setting [3]) were 19.8 and 24.9, respectively. For the same molecule, the “IC50 of cell viability” value amounted to 159 nM in test [2] (siRNA: siBRCA1) and 52.2 nM in test [2] (setting [3]).

In the case of `Cc1c2oc3c(C)ccc(C(=O)N[C@@H]4C(=O)N[C@H](C(C)C)C(=O)N5CCC[C@H]5C(=O)N(C)CC(=O)N(C)[C@@H](C(C)C)C(=O)O[C@@H]4C)c3nc-2c(C(=O)N[C@@H]2C(=O)N[C@H](C(C)C)C(=O)N3CCC[C@H]3C(=O)N(C)CC(=O)N(C)[C@@H](C(C)C)C(=O)O[C@@H]2C)c(N)c1=O` [Dactinomycin], the drug sensitivity score in test [1] (siRNA: siBRCA1) was determined as 36.8; in test [1] (setting [3]) it was 38.3. For the same molecule, the “IC50 of cell viability” value in test [2] (siRNA: siBRCA1) worked out at 4.19 nM; in test [2] (setting [3]), 2.18 nM.

On to `COc1ccc(-c2ccc3c(N4CCOC[C@@H]4C)nc(N4CCOC[C@@H]4C)nc3n2)cc1CO` [AZD8055], for which the figures for the drug sensitivity score in test [1] (siRNA: siBRCA1) and in test [1] (setting [3]) were 19.1 and 18.2, respectively. Also, the “IC50 of cell viability” value in test [2] (siRNA: siBRCA1) amounted to 45.9 nM; in test [2] (setting [3]) it was 88.8 nM.

As for `COCC1(CO)C(=O)C2CCN1CC2` (stereo not drawn) [Prima-1 Met], the drug sensitivity score in test [1] (siRNA: siBRCA1) and in test [1] (setting [3]) was 0 in each case. The “IC50 of cell viability” value in test [2] (siRNA: siBRCA1) and in test [2] (setting [3]) was over 4170 nM each time.

Take `COc1ccc(S(=O)(=O)Nc2cccnc2Nc2ccc(O)cc2)cc1` [ABT-751]: the drug sensitivity score in test [1] (siRNA: siBRCA1) turned out to be 13.9; in test [1] (setting [3]) it was 13.5. In addition, the “IC50 of cell viability” value in test [2] (siRNA: siBRCA1) amounted to 253 nM; in test [2] (setting [3]) it was 308 nM.

Regarding `N[C@@H](Cc1ccc(N(CCCl)CCCl)cc1)C(=O)O` [Melphalan], the drug sensitivity score in test [1] (siRNA: siBRCA1) and in test [1] (setting [3]) was 0 in each case. Also, the “IC50 of cell viability” value in test [2] (siRNA: siBRCA1) and in test [2] (setting [3]) was over 4170 nM each time.

In the case of `CS(=O)(=O)OCCCCOS(C)(=O)=O` [Busulfan], the drug sensitivity score in test [1] (siRNA: siBRCA1) and in test [1] (setting [3]) was 0 throughout. The “IC50 of cell viability” value in test [2] (siRNA: siBRCA1) and in test [2] (setting [3]) was over 4170 nM in each case.

For the origin of these results see the supplement of paper PMC4649846.
